Source: US20170035824A1, “USAGE OF OBLONGIFOLIN C, A NATURAL COMPOUND FROM GARCINIA YUNNANENSIS HU, ON TREATING CANCER AS METASTASIS INHIBITOR AND AUTOPHAGIC FLUX INHIBITOR” (Hong Kong Baptist University, priority 2013, published 2017)
Where a name gives a salt, the structure may show the parent alone.

Columns and labels:
[1] = system: HeLa cells xenograft; assay: Anti-cancer activity in vivo, cervical cancer xenograft; parameters: species or system BALB/c nude mice; details: for tumor size versus vehicle treated mice: HeLa xenograft, intratumoral once every 2 days, seven injections, OC 12 μg, Etopside 4 μg
Procedure: Four weeks old nude mice were engrafted with HeLa cells and observed until tumors reached ˜100 mm^3. Tumor-bearing mice were then treated vehicle, OC (12 μg) or Etopside (4 μg) […] by intratumoral once every 2 days for a total of seven injections. Mice were killed and tumors resected and weighed 2 days after the final injection.
Four-week-old BALB/c nude mice were purchased from the Experimental Animal
Center of Chinese Academy of Science (Shanghai, China) and kept in pathogen free environment at Experimental Animal Center in Shanghai University of Traditional Chinese Medicine. The mice have an average weight of 20 g. Approximately 2×10^6 HeLa cells were injected into the left and right sides of the animals. Two weeks later, 15 mice bearing tumors around 100 mm^3 in volume were randomly divided into vehicle control, etoposide (positive control) and oblongifolin C-treated groups. The mice were administered via intratumoral injection at the dose of 4 μg etopside or 12 μg OC in 200 μl solvent (0.05% DMSO, 0.05% Tween-80 in PBS) once every two days for two weeks. The tumor size was measured over a period of two weeks.

[2] = literature background; cited from earlier work
[3] = system: HeLa cells stably expressing GFP-LC3; assay: Live cell imaging and colocalization analysis (GFP-LC3 / LysoTracker Red); type: cell-based; details: OC 15 μM or HCQ 50 μM, 8 hours, FIG. 11
Procedure: Live cell images of GFP-LC3 and LysoTracker Red were taken using Olympus confocal microscope. The enlarged images show the colocalization of two signals.
(§1) For lysotracker staining, HeLa or MEF cells grown on coverslips were stained with 50 nM Lysotracker Red DND-99 (Molecular Probes, Invitrogen, L7528) in pre-warmed medium for 20 min at 37° C. All of the samples were examined under an Olympus FV1000 confocal microscope (Olympus) equipped with a 63×oil immersion objective. The confocal images were acquired using FV10-ASW 2.0 software. Calculation of Pearson's correlation coefficient (PCC) was applied to quantify colocalization. PCC was calculated by FV10-ASW 2.0 software between the stack of images from two channels.

[4] = system: ECA109 cells; assay: Wound healing assay; type: cell-based, human; details: ECA109, 24 hours, FIG. 2
Procedure: (§2) Human esophageal cancer cell line ECA109 were maintained in RPMI1640 (Gibco/Invitrogen) supplemented with 10% fetal bovine serum (Invitrogen), 100 U/ml penicillin-streptomycin (Gibco/ Invitrogen, 15140-122), within a humidified atmosphere containing 5% CO2 at 37° C.
ECA109 cells were seeded on 12-well plates at a density of 1×10^5 cells/well. After the cells reached sub-confluence, the mono-layer cells were wounded by scraping off the cells and then grown in medium for 24 hours. The migrated distance of cells was monitored and imaged under a microscope.

[5] = system: ECA109 cells; assay: Transwell assay (cell migration); type: cell-based, human; details: ECA109, 24 hours, FIG. 3
Procedure: as §2
(§3) Cell migration was also determined using a transwell (Corning) with pore size of 8 μm. 5×10^4 cells that were seeded in serum-free medium in the upper chamber, while medium containing 10% FBS in the lower chamber. After incubating for 24 hours at 37° C., cells in the upper chamber were carefully removed with a cotton swab and the cells that had traversed to reverse face of the membrane were fixed in methanol, stained with Giemsa, and counted.

[6] = system: ECA109 cells; assay: Anti-invasion assay (Matrigel assay); type: cell-based, human; details: ECA109, 72 hr, FIG. 4
Procedure: as §2
as §3, with “Cell invasion” for “Cell migration”, “was” for “was also”, “using Matrigel (BD) coated” for “using a”, “for 72 hr” for “for 24 hours”

[7] = system: HeLa-LC3-GFP cells; assay: GFP-LC3 translocation and quantitative analyses; type: cell-based; details: OC 5, 10 and 20 μM, 24 hours, FIG. 5 and 6
Description: MEF, HeLa, CNE, HCT116, MCF7 and HepG2 cells were transfected with pEGFP-LC3 plasmid using lipofectamine 2000 (Invitrogen, 11668-019). […] Image acquisition was done using an Olympus FV1000 confocal microscope. The number of GFP-LC3 dots was counted from at least 150 cells from randomly placed positions within each sample.

[8] = system: human breast cancer cells (MCF7); assay: GFP-LC3 translocation; type: cell-based; details: MCF7, 10 μM, 24 hours, FIG. 7
Procedure: (§4) MEF, HeLa, CNE, HCT116, MCF7 and HepG2 cells were transfected with pEGFP-LC3 plasmid using lipofectamine 2000 (Invitrogen, 11668-019). One day after transfection, cells were treated with 10 μM Oblongifolin C for 24 hours prior to fixation. Image acquisition was done using an Olympus FV1000 confocal microscope. The number of GFP-LC3 dots was counted from at least 150 cells from randomly placed positions within each sample.

[9] = system: human colon cancer cells (HCT116); assay: GFP-LC3 translocation; type: cell-based; details: HCT116, 10 μM, 24 hours, FIG. 7
Procedure: as §4

[10] = system: human hepatocytes (HepG2); assay: GFP-LC3 translocation; type: cell-based; details: HepG2, 10 μM, 24 hours, FIG. 7
Procedure: as §4

[11] = system: human nasopharyngeal cancer cells (CNE); assay: GFP-LC3 translocation; type: cell-based; details: 10 μM, 24 hours, FIG. 7
Procedure: as §4

[12] = system: mouse embryonic fibroblast cells (MEF); assay: GFP-LC3 translocation; type: cell-based; details: 10 μM, 24 hours, FIG. 7
Procedure: as §4

[13] = system: HeLa cells; assay: Western blot for endogenous LC3 / SQSTM1; type: cell-based
Procedure: (§5) GAPDH was used as a loading control. An image J densitometric analysis of the LC3-II/GAPDH ratio from LC3 immunoblots was shown.
(§6) Samples were analyzed by western blotting for endogenous SQSTM1 and GAPDH. An image J densitometric analysis of the SQSTM1/GAPDH ratio from immunoblots was shown.
(§7) Cells were lysed in ice-cold whole cell extract buffer (50 mM pH8.0 Tris-HCl, 4M urea and 1% TritonX-100), supplemented with complete protease inhibitor mixture (Roche Diagnostics, 04693132001). Cell extracts were resolved by SDS-PAGE gel electrophoresis and transferred to a nitrocellulose membrane. After blocking with 5% non-fat milk in Tris-buffered saline containing 0.2% Tween-20, the membranes were probed with the following antibodies: LC3B (sigma, L7543), SQSTM1/p62 (MBL, PM045), GAPDH (Proteintech, 10494-1-AP), CASP3 (Cell signaling, #9962). Following incubation with horseradish peroxidase coupled secondary anti-mouse (KPL, 074-1806) or anti-rabbit antibodies (KPL, 474-1506), protein bands were visualized using ECL Blotting Detection Reagents (KPL, 54-61-00).

[14] = system: MEF cells; assay: Western blot for endogenous LC3 / SQSTM1; type: cell-based, mouse
Procedure: as §5, §6, §7

[15] = system: MEF; assay: Live cell imaging and colocalization analysis (GFP-LC3 / LysoTracker Red); type: cell-based, mouse; details: OC 15 μM, 8 hours, FIG. 12
Procedure: The colocalization of GFP-LC3 and LysoTracker Red were analyzed by confocal microscopy. The enlarged images show the colocalization of two signals.
as §1

[16] = system: HeLa cells; assay: Flow cytometry (propidium iodide), complete vs nutrient-deprived medium; type: cell-based; details: OC 5 μM, EBSS vs DMEM, 24 hours, FIG. 13
Procedure: (§8) The cells were fixed and stained with propidium iodide (PI).
(§9) HeLa, HCT116, CNE, MCF7, MDA-MB-231, HepG2 and MEFs were maintained in Dulbecco's modified Eagle's medium (Gibco/Invitrogen, 12800-017) supplemented with 10% fetal bovine serum 100U/m1 penicillin-streptomycin (Gibco/ Invitrogen, 15140-122) at 37° C. in a humidified 5% CO2 incubator. For nutrient starvation, HeLa or CNE cells cultured in DMEM were washed three times with PBS, then cultured in Earle's Balanced Salt Solution (EBSS, Sigma, E6132) for indicated time point.
(§10) Cells were treated with Oblongifolin C then cultured in complete (DMEM with serum) or nutrient deprived medium (EBSS) for 24 hours. The cells were fixed in 70% ethanol in PBS overnight. For cell cycle distribution, cells were counterstained with propidium iodide and analyzed for DNA content by use of a BD Influx™ flow cytometer.

[17] = system: CNE cells; assay: as above; type: cell-based, human; details: OC 5 μM, EBSS vs DMEM, 24 hours, FIG. 13
Procedure: as §8, §9, §10

[18] = system: HeLa cells; assay: Western blot for cleaved Caspase 3 in DMEM or EBSS medium; type: cell-based; details: DMEM and EBSS, 24 hours, FIG. 14
Procedure: Samples were analyzed by western blotting for cleaved Caspase 3, LC3 and SQSTM1. GAPDH was used as a loading control.
as §7, §10

[19] = system: lysosomal proteolytic activity; assay: Lysosomal proteolytic activity / autophagic flux; type: cell-based
[20] = system: human colorectal cancer cell lines; details: previous studies (Feng et al. 2012; Huang et al. 2009); cited from earlier work

COc1cc([C@@H]2c3cc4c(cc3[C@@H](O[C@@H]3O[C@@H]5CO[C@@H](C)O[C@H]5[C@H](O)[C@H]3O)[C@H]3COC(=O)[C@H]23)OCO4)cc(OC)c1O [Etop, etoposide, reference compound]
tumor size versus vehicle treated mice [1]: smaller than those of vehicle treated mice

CC(C)=CCC[C@]1(C)C=Cc2c(O)c3c(c(CC=C(C)C)c2O1)O[C@]12C(=C[C@@H]4C[C@H]1C(C)(C)O[C@@]2(C/C=C(/C)C(=O)O)C4=O)C3=O [GA, gambogic acid]
toxicity [2]: induces toxicity to the liver and kidney

CCN(CCO)CCCC(C)Nc1ccnc2cc(Cl)ccc12 (centres unmarked) [HCQ, hydroxychloroquine sulfate, reference compound]
autophagosome-lysosome fusion (colocalization of GFP-LC3 and LysoTracker Red) [3]: block autophagosome-lysosome fusion

CC(C)=CCC/C(C)=C/C[C@@H]1C[C@]2(CC=C(C)C)C(=O)[C@@](CC=C(C)C)(C(=O)C(C(=O)c3ccc(O)c(O)c3)=C2O)[C@@]1(C)CCC=C(C)C [Oblongifolin C]
wound healing (migrated distance of cells) [4]: suppressed the wound healing in a concentration dependent manner
cell migration through transwell [5]: suppress ECA109 cells migration through transwell at concentration dependent manner
cell invasion through matrigel [6]: suppress ECA109 cells invasion through matrigel at a concentration dependent manner
GFP-LC3 puncta formation [7]: could regulate GFP-LC3 puncta formation at concentration dependent manner
GFP-LC3 puncta formation [8]: could regulate GFP-LC3 puncta formation
GFP-LC3 puncta formation [9]: could regulate GFP-LC3 puncta formation
GFP-LC3 puncta formation [10]: could regulate GFP-LC3 puncta formation
GFP-LC3 puncta formation [11]: could regulate GFP-LC3 puncta formation
GFP-LC3 puncta formation [12]: could regulate GFP-LC3 puncta formation
amount of LC3-II protein (FIG. 10; autophagic flux) ([13]; OC 15 μM over a time period, FIG. 10): increase the amount of LC3-II protein in a time-dependent manner
amount of LC3-II protein (time dependence) ([13]; OC 15 μM, 0, 4, 8, 12 and 24 hours, FIG. 9): increase the amount of LC3-II protein in a time-dependent manner
amount of LC3-II protein (dose dependence) ([13]; OC 2, 5, 10 and 25 μM, 24 hours, FIG. 8): increase the amount of LC3-II protein in a dose-dependent manner
amount of LC3-II protein (time dependence) ([14]; MEF, OC 15 μM, 0, 4, 8, 12 and 24 hours, FIG. 9): increase the amount of LC3-II protein in a time-dependent manner
amount of LC3-II protein (dose dependence) ([14]; MEF, OC 2, 5, 10 and 25 μM, 24 hours, FIG. 8): increase the amount of LC3-II protein in a dose-dependent manner
amount of LC3-II protein (FIG. 10; autophagic flux) ([14]; MEFs, OC 15 μM over a time period, FIG. 10): increase the amount of LC3-II protein in a time-dependent manner
autophagosome-lysosome fusion (colocalization of GFP-LC3 and LysoTracker Red) [3]: block autophagosome-lysosome fusion
autophagosome-lysosome fusion (colocalization of GFP-LC3 and LysoTracker Red) [15]: block autophagosome-lysosome fusion
apoptosis of nutrient-deprived cancer cells [16]: sensitizes nutrient-deprived cancer cells to apoptosis
apoptosis of nutrient-deprived cancer cells [17]: sensitizes nutrient-deprived cancer cells to apoptosis
Caspase 3 cleavage [18]: resulted in Caspase 3 and cleavage in concentration-dependent manner
anticancer effect in cervical cancer xenograft ([1]; 12 μg OC intratumoral once every two days for two weeks, FIG. 15): anticancer effect similar to etopside
tumor size versus vehicle treated mice [1]: smaller than those of vehicle treated mice
effective dosage for mouse ([1]; based on 12 μg given to 20 g mouse): 0.6 mg/kg
tumor markers in cervical cancer xenograft mouse model (Caspase 3, LC3, SQSTM1, lysosomal cathepsins) ([1]; cervical cancer xenograft mouse model): increased Casepse 3 cleavage, LC3 and SQSTM1 accumulation, and reduced expression of lysosomal cathepsins
autophagic flux and lysosomal proteolytic activity [19]: blocks both autophagic flux and lysosomal proteolytic activity
relative potency among PPAP compounds [20]: most potent PPAP compound
